Data from US4444773A, “Substituted thiazolo[3,2-a]pyrimidines and process for their preparation” (Farmitalia Carlo Erba S.p.A., priority 1981, dated 1984).

Experiments:
restraint ulcers in rats = assay: inhibition of restraint ulcers in rats (Bonfils method); format: in vivo; conditions: po; approximate ED50; rat, per os one hour before immobilization, lesions counted 4 hours after immobilization; read-out: Antiulcerogenic activity p.o. ED50
Excerpt: The compounds of the present invention are active on the gastroenteric system, in particular they are endowed with anti-ulcerogenic and gastric anti-secretory activity and are therefore useful in therapy, for example in the prevention and treatment of peptic, e.g. duodenal, gastric and esophageal, ulcers and to inhibit gastric acid secretion. The compounds of the invention are also useful for reducing the undesiderable gastrointestinal side-effects resulting from systemic administration of anti-inflammatory prostaglandin synthetase inhibitors and may be, therefore, used for this purpose in association with them. The anti-ulcerogenic activity of the compounds of the invention is shown, e.g., by the fact that they are active in the test of the inhibition of restraint ulcers in rats, according to the method of Bonfils et al., (Therapie, 1960, 5, 1096; Jap. J. Pharmac. 1945, 43, 5). Six Sprague-Dawley male rats (100-120 g) fasted 24 hours were used for the experiment: a square flexible small-mesh wire netting was used for the immobilization and 4 hours after the immobilization the rats were sacrificed, their stomachs were removed and the lesions counted under a dissecting microscope. The tested compounds were administered per os (p.o.) one hour before the immobilization.

[1] = acute toxicity (LD50) in the mouse; conditions: in vivo, po, per os, single administration of increasing doses, measured on the seventh day, read-out: approximate acute toxicity (LD50)
Protocol: In view of their high therapeutic index, the compounds of the invention can be used safely in medicine. For example, the approximate acute toxicity (LD50) of the compounds 7-trans-[2-(3-pyridyl)-ethenyl]-5H-thiazolo[3,2-a]pyrimidine-5-one and 2-chloro-7-trans-[2-(3-pyridyl)-ethenyl]-5H-thiazolo[3,2-a]pyrimidine-5-one in the mouse determined by single administration of increasing doses and measured on the seventh day of treatment, is higher than 800 mg/kg per os. Analogous toxicity data have been found for other compounds of the invention.

[2] = tested on: phenylquinone induced writhing; assay: phenylquinone induced writhing test (Siegmund); format: in vivo, mice; conditions: Mus musculus; approximate ED25; printed 'in the rat', after oral administration; read-out: analgesic activity ED25, phenylquinone-induced writhing test
Excerpt: (§1) A. Winter et al. (J. Pharmac. Exp. Therap. 1963, 141, 369) and P. Lence (Arch. Int. Pharmacodyn., 1962, 136, 237), and (B) the Reversed Passive Arthus Reaction (RPAR) in rat paw, induced by the interaction of antigen and antibody resulting in the formation of precipitating immune complex, followed by fixation of complement and accumulation of polymorphonuclear leucocytes at a focal point (D. K. GEMMELL, J. COTTNEY and A. J. LEWIS, Agents and Actions 9/1 pag. 107, 1979). The compounds of this invention are also endowed with analgesic activity. The analgesic activity was assessed, for example, by means of phenylquinone induced writhing test in mice according to Siegmund [Siegmund et al. Proc. Soc. Exper. Biol. Med., 95, 729 (1957)].
With regard to the analgesic activity, one of the preferred compounds of this invention is, for example, the compound 2-chloro-7-trans-[2-(3-pyridyl)-ethenyl]-5H-thiazolo[3,2-a]pyrimidine-5-one, wich has an approximate ED25 value of 25 mg/kg in the phenylquinone-induced writhing test in the rat, after oral administration. Furthermore the compounds of this invention are effective in the inhibiting the TXA2 synthetase in vivo and may be therefore useful in therapy, for example, in the prevention and treatment of all kinds of thrombosis, peripheral vasculopaties and coronary artery diseases.

[3] = tested on: Reversed Passive Arthus Reaction (RPAR); assay: Reversed Passive Arthus Reaction (RPAR) in rat paw; format: in vivo; conditions: approximate ED25, oral administration, read-out: Anti-inflammatory activity RPAR reaction ED25
Excerpt: as §1
(§2) Therefore the compounds of the invention may be used in therapy to treat pains and inflammatory processes, such as for example, rheumatoid arthritis and osteoarthrosis. The following Tables II and III show, for example, the approximate ED25 values of the anti-inflammatory activity in the above tests in the rat after oral administration for some compounds of this invention: […]

[4] = tested on: carrageenin induced oedema; assay: carrageenin induced oedema in the hind paw of rats; format: in vivo; conditions: approximate ED25; rat, oral administration; read-out: Anti-inflammatory activity Carrageenin induced oedema ED25
Excerpt: as §1, §2

[5] = tested on: gastric secretion in rats; assay: gastric antisecretory activity, pylorus ligature technique (Shay method); format: in vivo; conditions: approximate ED50; rat, intraduodenal administration at the time of ligature, 4 hours
Protocol: Gastric antisecretory activity was evaluated in rats by the pylorus ligature technique. Six Sprague-Dawley male rats (110-130 g) were used for each group. Twenty-four hours before the test, the rats were deprived of food but their water supply was maintained. On the day of the operation, the pylorus was ligated under light ether anaesthesia. Each compound was injected intraduodenally (i.d.) at the time of the ligature. Four hours after the ligature the rats were sacrificed, the stomach secretion was collected and centrifuged at 3500 r.p.m. for 10 minutes, and the volume, less sediment, was determined.
The amount of the free hydrochloric acid in the gastric juice was determined by titration against 0.01 N sodium hydroxide to pH 7.0.

TXA2 synthetase = molecular target: T1, TXA2 synthetase (Rattus norvegicus, UniProt P49430); assay: TXA2 synthetase inhibition in vivo, TXB2 concentration in serum; conditions: single oral dose of 10 mg/kg, TXB2 in serum two hours after administration
T1 construct: determining the concentration of TXB2 in the serum of the animals killed two hours after the administration of the drug; from tissue; host or cells: living rat, serum sampled after oral dosing (endogenous enzyme)
T1 sequence (P49430 1-533): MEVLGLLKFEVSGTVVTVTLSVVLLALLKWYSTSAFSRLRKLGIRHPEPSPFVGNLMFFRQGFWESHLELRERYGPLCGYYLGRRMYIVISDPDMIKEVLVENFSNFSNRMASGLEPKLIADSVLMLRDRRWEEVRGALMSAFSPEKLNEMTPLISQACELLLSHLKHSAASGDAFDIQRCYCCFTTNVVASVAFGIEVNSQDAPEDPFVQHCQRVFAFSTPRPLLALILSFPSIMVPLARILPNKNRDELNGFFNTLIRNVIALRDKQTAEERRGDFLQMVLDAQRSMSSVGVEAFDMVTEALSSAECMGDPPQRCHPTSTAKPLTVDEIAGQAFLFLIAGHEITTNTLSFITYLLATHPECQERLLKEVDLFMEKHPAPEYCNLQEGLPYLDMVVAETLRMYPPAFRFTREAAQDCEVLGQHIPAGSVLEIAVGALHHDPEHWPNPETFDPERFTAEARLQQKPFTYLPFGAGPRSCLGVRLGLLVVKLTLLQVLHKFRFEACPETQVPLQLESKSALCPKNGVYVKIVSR
Protocol: The activity on the TXA2 synthetase was evaluated, e.g., in rat by administering the compounds at a single oral dose of 10 mg/kg and determining the concentration of TXB2 in the serum of the animals killed two hours after the administration of the drug.

Compound | ED50 (restraint ulcers in rats) | LD50 at 168 h [1] | ED25 [2] | ED25 [3] | ED25 [4] | ED50 [5] | TXA2 synthetase inhibiting activity (TXA2 synthetase)
O=c1cc(/C=C/c2cccnc2)nc2sc(Cl)cn12 [2-chloro-7-trans-[2-(3-pyridyl)-ethenyl]-5H-thiazolo[3,2-a]pyrimidine-5-one] | 10 mg/kg | > 800 mg/kg | ~25 mg/kg | 25 mg/kg | 16 mg/kg |  | 
COc1c(/C=C/c2cccnc2)nc2sccn2c1=O [6-methoxy-7-trans-[2-(3-pyridyl)-ethenyl]-5H-thiazolo[3,2-a]pyrimidine-5-one] |  |  |  |  | 15 mg/kg | ~30 mg/kg | 
Cc1c(/C=C/c2cccnc2)nc2sccn2c1=O [6-methyl-7-trans-[2-(3-pyridyl)-ethenyl]-5H-thiazolo[3,2-a]pyrimidine-5-one] |  |  |  |  |  |  | having TXA2 synthetase inhibiting activity
O=c1cc(/C=C/c2cccnc2)nc2sccn12 [7-trans-[2-(3-pyridyl)-ethenyl]-5H-thiazolo[3,2-a]pyrimidine-5-one] | 9 mg/kg | > 800 mg/kg |  |  | 6 mg/kg |  | 
